Laboratory results: the supplement of paper PMC11208160

experiment: recombinant UMI read abundance after kanamycin selection (control-corrected) (log10(CPM+1)); higher = more efficient recombination; extreme values may be limits of the assay; sequences stand for … in AGTGCAGAGAAAATCGGCCAGTTTTCTCTGCCTGCAGTCCGCATGCCGTGGGACCCCTTGGGTTCTAACCTGTTGCCTAGATTTATGCAGCGGACTGCCTTTCTCCCAAAGTGATAAACCGG…AGGTTGGTTTCACT; site = the 11-nt donor
Method: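 Pooled E. coli donor-specificity screen for the IS621 bridge recombinase. Each library member carries a reprogrammed 11-nt donor and a full-length LE bridge RNA expressed in cis from the natural promoter, with a paired donor-binding loop (8-nt LDG + 4-nt RDG) and a target-binding loop fixed to T5. It is co-electroporated with a T5 target plasmid; recombinase is induced with 0.07 mM IPTG and recombinants are selected on kanamycin. UMIs are counted as CPM, averaged over two biological replicates and corrected by the unselected control. Molecule = full bridge RNA written as DNA, built from the T5 scaffold: LDG = donor specificity nt 1-8, RDG = reverse complement of nt 8-11.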
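Also: IS621 bridge recombinase in Escherichia coli cells against a fixed T5 target plasmid.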

Sequence	recombinant UMI read abundance (log10)
AAAAGGCCATGGACCGGTTTTCCCGGTAATCCGTATTTGAC (site AAAAGGCCTGT)	1.38
AAAAGGCCATGGACCGGTTTTCCCGGTAATCCGTATTTGAC (site ACAAGGCCTGT)	0
AAAAGGCCATGGACCGGTTTTCCCGGTAATCCGTATTTGAC (site AGAAGGCCTGT)	0
AAAAGGCCATGGACCGGTTTTCCCGGTAATCCGTATTTGAC (site ATAAGGCCTGT)	0
AAAAGTACATGGACCGGTTTTCCCGGTAATCCGTATTTGAT (site AAAAGTACTAT)	1.62
AAAATACCATGGACCGGTTTTCCCGGTAATCCGTATTTGAC (site AAAATACCTGT)	0
AAACAGACATGGACCGGTTTTCCCGGTAATCCGTATTTGAC (site AAACAGACTGT)	2.57
AAACAGTCATGGACCGGTTTTCCCGGTAATCCGTATTTGCT (site AAACAGTCTAG)	2.98
AAACATGCATGGACCGGTTTTCCCGGTAATCCGTATTTGAA (site AAACATGCTTT)	2.15
AAACGCACATGGACCGGTTTTCCCGGTAATCCGTATTTGTG (site AAACGCACTCA)	0.245
AAACGGACATGGACCGGTTTTCCCGGTAATCCGTATTTGTA (site AAACGGACTTA)	1.84
AAACTAACATGGACCGGTTTTCCCGGTAATCCGTATTTGCA (site AAACTAACTTG)	2.27
AAACTAACATGGACCGGTTTTCCCGGTAATCCGTATTTGCG (site AAACTAACTCG)	2.09
AAAGAATCATGGACCGGTTTTCCCGGTAATCCGTATTTGCA (site AAAGAATCTTG)	2.66
AAAGAATCATGGACCGGTTTTCCCGGTAATCCGTATTTGCA (site ACAGTATCTTG)	0.902
AAAGATACATGGACCGGTTTTCCCGGTAATCCGTATTTGTT (site AAAGATACTAA)	2.21
AAAGATTCATGGACCGGTTTTCCCGGTAATCCGTATTTGTT (site AAAGATTCTAA)	2.82
AAAGATTCATGGACCGGTTTTCCCGGTAATCCGTATTTGTT (site CAAGATTCTAA)	2.12
AAAGATTCATGGACCGGTTTTCCCGGTAATCCGTATTTGTT (site GAAGATTCTAA)	0.233
AAAGATTCATGGACCGGTTTTCCCGGTAATCCGTATTTGTT (site TAAGATTCTAA)	2.48
AAAGTATCATGGACCGGTTTTCCCGGTAATCCGTATTTGGA (site AAAGTATCTTC)	2.45
AAAGTATCATGGACCGGTTTTCCCGGTAATCCGTATTTGGA (site ACAGTATCTTG)	0
AAATAGGCATGGACCGGTTTTCCCGGTAATCCGTATTTGCC (site AAATAGGCTGG)	1.07
AAATATACATGGACCGGTTTTCCCGGTAATCCGTATTTGAC (site AAATATACTGT)	2.52

Sequence	recombinant UMI read abundance (log10)
AACAACCCATGGACCGGTTTTCCCGGTAATCCGTATTTGAA (site AACAACCCTTT)	0.192
AACAAGTCATGGACCGGTTTTCCCGGTAATCCGTATTTGAC (site AACAAGTCTGT)	1.86
AACAATACATGGACCGGTTTTCCCGGTAATCCGTATTTGTC (site AACAATACTGA)	1.64
AACAGTGCATGGACCGGTTTTCCCGGTAATCCGTATTTGTC (site AACAGTGCTGA)	2.39
AACCATCCATGGACCGGTTTTCCCGGTAATCCGTATTTGAT (site AACCATCCTAT)	0.499
AACCATCCATGGACCGGTTTTCCCGGTAATCCGTATTTGAT (site AACCCTCCTAT)	0.0146
AACCATCCATGGACCGGTTTTCCCGGTAATCCGTATTTGAT (site AACCGTCCTAT)	0.00892
AACCATCCATGGACCGGTTTTCCCGGTAATCCGTATTTGAT (site AACCTTCCTAT)	0.431
AACCCCGCATGGACCGGTTTTCCCGGTAATCCGTATTTGAC (site AACCCCGCTGT)	2.32
AACCGAGCATGGACCGGTTTTCCCGGTAATCCGTATTTGTT (site AACCGAGCTAA)	0.146
AACCGTTCATGGACCGGTTTTCCCGGTAATCCGTATTTGAT (site AACCGTACTAT)	0.00732
AACCGTTCATGGACCGGTTTTCCCGGTAATCCGTATTTGAT (site AACCGTCCTAT)	0.012
AACCGTTCATGGACCGGTTTTCCCGGTAATCCGTATTTGAT (site AACCGTGCTAT)	0.0146
AACCGTTCATGGACCGGTTTTCCCGGTAATCCGTATTTGAT (site AACCGTTCTAT)	0.348
AACCTTTCATGGACCGGTTTTCCCGGTAATCCGTATTTGAC (site AACCTTTCTGT)	0
AACCTTTCATGGACCGGTTTTCCCGGTAATCCGTATTTGAC (site ACCCTTTCTGT)	0
AACCTTTCATGGACCGGTTTTCCCGGTAATCCGTATTTGAC (site AGCCTTTCTGT)	0
AACCTTTCATGGACCGGTTTTCCCGGTAATCCGTATTTGAC (site ATCCTTTCTGT)	0
AACGACCCATGGACCGGTTTTCCCGGTAATCCGTATTTGAG (site AACGACCCTCT)	0.029
AACGATCCATGGACCGGTTTTCCCGGTAATCCGTATTTGTA (site AACGATCCTTA)	1.42
AACGCCGCATGGACCGGTTTTCCCGGTAATCCGTATTTGAG (site AACGCCGCTCT)	0.916
AACGGGACATGGACCGGTTTTCCCGGTAATCCGTATTTGAT (site AACGGGACTAT)	2.44
AACTATTCATGGACCGGTTTTCCCGGTAATCCGTATTTGTA (site AACTATTCTTA)	2.2
AACTCAGCATGGACCGGTTTTCCCGGTAATCCGTATTTGGG (site AACTCAGCTCC)	0.0924

Sequence	recombinant UMI read abundance (log10)
AACTCAGCATGGACCGGTTTTCCCGGTAATCCGTATTTGGG (site ACCTCAGCTCC)	0.0111
AACTCAGCATGGACCGGTTTTCCCGGTAATCCGTATTTGGG (site AGCTCAGCTCC)	0.00784
AACTCAGCATGGACCGGTTTTCCCGGTAATCCGTATTTGGG (site ATCTCAGCTCC)	0.192
AACTGCGCATGGACCGGTTTTCCCGGTAATCCGTATTTGAT (site AACTGCGCTAT)	1.34
AACTGCGCATGGACCGGTTTTCCCGGTAATCCGTATTTGTG (site AACTGCGCTCA)	0.435
AACTGTCCATGGACCGGTTTTCCCGGTAATCCGTATTTGTG (site AACTGTCCTCA)	0.0176
AACTTGACATGGACCGGTTTTCCCGGTAATCCGTATTTGCT (site AACTTGACTAG)	0.971
AACTTGACATGGACCGGTTTTCCCGGTAATCCGTATTTGCT (site CACTTGACTAG)	1.12
AACTTGACATGGACCGGTTTTCCCGGTAATCCGTATTTGCT (site GACTTGACTAG)	0.665
AACTTGACATGGACCGGTTTTCCCGGTAATCCGTATTTGCT (site TACTTGACTAG)	1.24
AAGAAAACATGGACCGGTTTTCCCGGTAATCCGTATTTGGT (site AAGAAAACTAC)	1.5
AAGAACCCATGGACCGGTTTTCCCGGTAATCCGTATTTGAA (site AAGAACCCTTT)	1.5
AAGAAGACATGGACCGGTTTTCCCGGTAATCCGTATTTGCC (site AAGAAGACTGG)	2.47
AAGAAGACATGGACCGGTTTTCCCGGTAATCCGTATTTGCC (site AGGAAGACTTG)	0.0155
AAGAAGCCATGGACCGGTTTTCCCGGTAATCCGTATTTGAC (site AAGAAGCCTGT)	0
AAGCACACATGGACCGGTTTTCCCGGTAATCCGTATTTGTT (site AAGCACACTAA)	1.8
AAGCACGCATGGACCGGTTTTCCCGGTAATCCGTATTTGGA (site AAGCACGCTAC)	0.0278
AAGCACGCATGGACCGGTTTTCCCGGTAATCCGTATTTGGA (site AAGCACGCTCC)	0.0219
AAGCACGCATGGACCGGTTTTCCCGGTAATCCGTATTTGGA (site AAGCACGCTGC)	0
AAGCACGCATGGACCGGTTTTCCCGGTAATCCGTATTTGGA (site AAGCACGCTTC)	0.817
AAGCACGCATGGACCGGTTTTCCCGGTAATCCGTATTTGGG (site AAACACGCTCC)	0.00685
AAGCACGCATGGACCGGTTTTCCCGGTAATCCGTATTTGGG (site AACCACGCTCC)	0.0266
AAGCACGCATGGACCGGTTTTCCCGGTAATCCGTATTTGGG (site AAGAACGCTCC)	0.0117
AAGCACGCATGGACCGGTTTTCCCGGTAATCCGTATTTGGG (site AAGCAAGCTCC)	0.0142
